Laboratory results from patent US8507431B2, “Methods for accelerating wound healing by administration of a preadipocyte modulator or an adipocyte modulator” (HealOr Ltd., priority 2003, dated 2013).
Entries after “also recorded” stand apart in the source; their conditions may differ.

Tests used:
[1] = tested on: primary keratinocytes; test: Keratinocytes migration (wound scratch) assay in vitro; format: cell-based, murine; details: for keratinocyte migration in scratch assay vs control and insulin: treated daily, 24 and 48 hrs
Method: Primary keratinocytes were isolated from newborn skin as described in reference 18. Keratinocytes were cultured in Eagle's Minimal Essential Medium (EMEM) containing 8% Chelex (Chelex-100, BioRad) treated fetal bovine serum. To maintain a proliferative basal cell phenotype, the final Ca^2+ concentration was adjusted to 0.05 mM. Experiments were performed five to seven days after plating.
Primary mouse keratinocytes were untreated or treated with, PPARγ antagonist GW9662 (μM) or PPARγ agonist troglitazone (μM). Wound Scratch Assay was performed 24 hours following treatment, and representative fields were photographed immediately after the wounding (Day 0) and 48 hours later (Day 2). The average of wound closure represented as percentage in comparison to the initial width of the wound scratch (% of wound closure).
The effect of inhibiting or enhancing the activity of peroxisome proliferators-activated receptor gamma (PPARγ) on keratinocytes migration was evaluated utilizing the in vitro migration assay. Thus, primary keratinocytes were isolated and plated on 5 ml non-coated dishes until confluence in low Ca^2+ medium, and an artificial crossover scratch was formed in each dish with a 200 μm tip. Cells were either non-treated (control) or treated daily with PPARγ modulators.
In order to test the effect of different adipokines on keratinocyte migration to close the wound gap, an in vitro scratch assay was used. Thus, primary keratinocytes were isolated and plated on 5 ml non-coated dishes until confluence in low Ca^2+ medium, and an artificial crossover scratch was formed in each dish with a 200 μm tip. Cells were either non-treated (control) or treated daily with insulin (0.1 unit/ml), hIL-4 (2 ng/ml), hIL-6 (0.2 ng/ml), leptin (4 μg/ml) or apelin (0.02 μg/ml or 0.2 μg/ml).
(§1) Primary keratinocytes/fibroblasts were isolated and plated on 5 ml non-coated dishes until confluence in low Ca^2+ medium, and an artificial cross-over scratch was formed in each dish with a 200 μm tip. Then, cells were either non-treated or treated with visfatin (0.1 μg/ml or 0.0.1 μg/ml) or insulin (0.1 unit/ml) for up to 48 hrs.

[2] = tested on: Full thickness wounds on the back of C57BL mice; test: Wound healing assay, full thickness incision wounds in mice; format: in vivo; details: for epidermal migration vs PBS control (K14 staining) / wound contraction vs PBS control / dermal contraction (both dermal wound sides in a single field, H&E): topical daily for 6 days; for epidermal migration vs PBS control (K14 staining) / wound contraction vs PBS control / dermal contraction (both dermal wound sides in a single field, H&E) / wound area compared with the buffer control (morphological analysis): GW9662 2 μM, adipsin 1 μM; for wound contraction vs PBS control / wound area compared with the buffer control (morphological analysis): troglitazone 100 μM; for dermal contraction (both dermal wound sides in a single field, H&E): control negative; for wound area compared with the buffer control (morphological analysis): topical daily for six days, insulin 10 nM, troglitazone 100 μM + insulin 10 nM
Method: […] […] Wound biopsies were sampled, processed and analyzed morphologically and/or histochemically and/or immunohistochemically for various wound healing parameters, i.e., wound contraction, adipocytes migration and differentiation, epidermal migration, and epidermal closure.
The wound area was measured and compared to untreated control wounds; and wound contraction was calculated as the percent reduction of the wound area.
Wound biopsies were fixed in 4% paraformaldehyde then dehydrated in increasing concentrations of ethanol (50-100%). The dehydrated preparations were immersed first in xylene, then paraffin and xylene 1:1 solution, then in pure melted paraffin (60° C.). The paraffin blocks were then sectioned by a microtome and the sections were mounted on Super Frost^+™ slides.
Paraffin embedded wound-section slides were incubated at 60° C. for 60 minutes and were de-parafinated by washing the slides twice with toluene (100%) for 10 minutes, then rehydrated in decreasing concentration of ethanol (100-50%) for 5 minutes each. The slides were stained with hematoxylin (ready to use solution) for 10 minutes, rinsed with water, stained with eosin (0.5% in DDW) for 5 minutes, and then washed with 70% ethanol by 2 quick immersions. Thereafter, the slides were dehydrated by washing once with 95% ethanol for 2 minutes, twice with 100% ethanol for 5 minutes, and twice with xylene (100%) for 10 minutes, then mounted with entellan (MERCK Darmstadt Germany).
Paraffin embedded wound-section slides were de-parafinated as described for H&E staining above and incubated in blocking solution (5% BSA and 0.5% Tween 20™ in PBS) for 1 hour. The slides were then incubated with either anti-keratin 1 (1:500) or anti-keratin 14 (1:1000) antibody in blocking solution (5% BSA and 0.5% Tween 20™ in PBS) at 4° C. overnight. Thereafter, the slides were washed five times with washing buffer (5% Tween 20™ in PBS for K14 and 0.5% Tween 20™ in PBS for K1) followed by incubation with biotinilated goat anti-rabbit antibody (ZYMED Laboratories Inc.) suspended (1:200) in blocking solution (5% BSA and 0.5% Tween 20™ in PBS) for 1 hour at room temperature. The slides were then washed three times with washing buffer (5% Tween 20™ in PBS) followed by incubation with an enzyme streptavidin conjugate in blocking solution (1:300) for 1 hour at room temperature. Thereafter, the slides were washed twice with washing buffer (5% Tween 20™ in PBS) for 5 minutes, once with PBS for 5 minutes and once with TRIS buffer (0.05 M in PBS) for 5 minutes, followed by incubation in DAB reagent for color development. The reaction was terminated by immersing the slides in double distilled water followed by counterstaining with eosin (ICN, 0.5% in DDW). The slides were then washed with 70% ethanol by 2 quick immersions; dehydrated by washing once again with 95% ethanol for 2 minutes, twice with 100% ethanol for 5 minutes, and twice with xylene (100%) for 10 minutes; and mounted with entellan (MERCK Darmstadt Germany).
The effect of inhibiting or enhancing the activity of PPARγ using PPARγ antogonist and agonist, respectively, on wound healing was also evaluated in vivo. […]
The effect of adipsin (complementing Factor D, which is secreted from adipocytes) on wound healing was evaluated in vivo. […] The mice were sacrificed 6 days after wounding and the wounds were then analyzed. […] In addition, adipsin increased epidermal closure from about 15% to about 30%, and increased keratinocytes migration from about 30% to about 65%, as compared with the buffer control (FIG. 6).
Full thickness 20 mm incision wounds were performed on 8-10 week old C57BL mice, 6 mice per group. The wounds were treated daily for 7 days with PBS (control), adiponectin (1 μg/ml) or visfatin (0.01 μg/ml). Skin biopsies were paraffin embedded and slide sections representing the widest area of the wound were prepared. Sections were then subjected to histochemical staining such as H&E and Masson Trichrome (collagen). […]

[3] = tested on: primary skin fibroblasts; test: Fibroblasts scratch migration assay in vitro; format: cell-based; details: 24 hrs; hIL-8 5 ng/ml, hIL-1β 0.2 ng/ml, hIL-4 2 ng/ml, apelin 0.2 μg/ml, adiponectin 1 μg/ml
Method: Primary skin fibroblasts were isolated and plated on 5 ml non-coated dishes until confluence in low Ca^2+ medium, and an artificial crossover scratch was formed in each dish with a 200 μm tip. Cells were either non-treated (control) or treated with insulin (0.1 unit/ml), hIL-8 (5 ng/ml), hIL-1β (0.2 ng/ml), hIL-4 (2 ng/ml), apelin (0.2 μg/ml) or adiponectin (1 μg/ml); and collected after 24 hrs.
as §1

[4] = hIL-6 0.2 ng/ml, leptin 4 μg/ml, apelin 0.02 μg/ml
[5] = C57BL mice, insulin 1 μM topical daily for six days, untreated about 60%

O=C(Nc1ccccc1)c1cc([N+](=O)[O-])ccc1Cl [GW9662, 2-chloro-5-nitrobenzanilide, reference compound]
keratinocytes migration in vitro vs untreated control ([1]; scratch with 200 μm tip, Day 2 (48 hours), GW9662 2 μM, troglitazone 100 μM): promoted keratinocytes migration | epidermal migration vs PBS control (K14 staining) [2]: promoted; also recorded: migrating toward covering the wound gap | wound contraction vs PBS control [2]: promoted wound contraction | dermal contraction (both dermal wound sides in a single field, H&E) [2]: positive dermal contraction | wound area compared with the buffer control (morphological analysis) [2]: substantially smaller

IL-1: adipokine hIL-1β
fibroblasts migration to close the wound gap vs non-treated and insulin [3]: promoted fibroblasts migration to completely close the wound gap

IL-6: adipokine hIL-6
keratinocyte migration in scratch assay vs control and insulin [1, 4]: not as significantly

IL-8: adipokine hIL-8
fibroblasts migration to close the wound gap vs non-treated and insulin [3]: smaller yet significant effect

adipsin
keratinocytes migration in vitro (summary statement) ([1]; no concentration given): substantially accelerated keratinocytes migration in vitro | epidermal closure, percent of wounds positive (K14) ([2]; adipsin 1 μM topical daily, buffer control about 15%): about 30% | keratinocytes migration, percent of wounds positive (K14) ([2]; adipsin 1 μM topical daily, buffer control about 30%): about 65% | epidermal migration vs PBS control (K14 staining) [2]: migrating toward covering the wound gap | wound contraction vs PBS control [2]: substantially promoted wound contraction | dermal contraction (both dermal wound sides in a single field, H&E) [2]: positive dermal contraction | wound area compared with the buffer control (morphological analysis) [2]: substantially smaller

apelin
keratinocyte migration in scratch assay vs control and insulin ([1]; hIL-4 2 ng/ml, apelin 0.2 μg/ml): keratinocyte migration was highly significant | keratinocyte migration in scratch assay vs control and insulin [1, 4]: not as significantly | fibroblasts migration to close the wound gap vs non-treated and insulin [3]: promoted fibroblasts migration to completely close the wound gap

insulin [reference compound]
migrating keratinocytes observed across the wound gap, percent of wounds (K14 staining) [2, 5]: about 90% | recruited adipocytes present, percent of wounds (H&E staining) [2, 5]: ~80% | wound area compared with the buffer control (morphological analysis) [2]: substantially smaller

leptin
keratinocyte migration in scratch assay vs control and insulin [1, 4]: not as significantly
